Read-outs that look alike come from different tables or passages of the source.
Tests used:
Format in all cases: in vivo
Lolium multiflorum = assay: Greenhouse trial: herbicidal efficacy, Lolium multiflorum; details: post-emergence 2-4-leaf, 14 days after application, g of ai/ha: A1.1 100, B1.1 5, C62 1.25, C4 60, mixtures at same rates
Protocol: (§1) The trials were carried out under greenhouse conditions (test pots, diameter 8 cm, spray application using 300 l of water/hectare, 2 repetitions, 6 to 8 plants per pot).
(§2) At the time of application, the harmful plants were at the 2-4-leaf growth stage. The application rates of the herbicidally active compounds used on their own or in combinations are listed in the results tables.
(§3) Scoring was by visual comparison of the treated with the untreated controls (0-100% scale, 14 days after the application. The results (means for all plants per pot and means of two repetitions per pot and treatment) are listed in Tables 4 to 8 below.
(§4) 4.2 Abbreviations used in Tables 4 to 6application rate g/ai=application rate in grams of active compound per hectare • ai=active ingredient (of an active compound content of 100%) • GA=glufosinate-ammonium • wheat tolerant • to GA=GA-tolerant wheat (GMO) • E^C=expected value according to Colby, (E^C=A+B−A×B/100)= • =for ternary combinations: (A+B)+C−(A+B)×C/100 • E^A=expected value according to the addition method (E^A=A+B) • Δ=difference (%) between observed value —%—vs. expected value (%) (observed value minus expected value) • examination: observed values for (A), (B) and (A)+(B) in % • scoring: observed value (%) greater>than E^C/E^A:->synergism (+Δ) • observed value (%) equal to =E^C/E^A->additive effect (+−0Δ) • observed value (%) smaller<than E^A/E^C->antagonism (−Δ)

wheat (GA-tolerant) = test system: wheat (GA-tolerant)
Protocol: as §1
(§5) At the time of application, the harmful plants were at the 2-4-leaf growth stage.

Setaria viridis = assay: Greenhouse trial: herbicidal efficacy, Setaria viridis; details: post-emergence 2-4-leaf, 14 days after application
Protocol: as §1, §2, §3, §4

Viola arvensis = assay: Greenhouse trial: herbicidal efficacy, Viola arvensis; details: post-emergence 2-4-leaf, 14 days after application, g of ai/ha: A1.1 100, B1.1 5, C7 100, C25 1.25, C52 2.5, C43 100, C57 5, mixtures at same rates
Protocol: as §1, §5

Matricaria chamomilla = assay: Greenhouse trial: herbicidal efficacy, Matricaria chamomilla; details: post-emergence 2-4-leaf, 14 days after application, g of ai/ha: A1.1 100, B1.1 5, C5 1.25, C24 12.5, C9 7.5, C32 62.5, C37 5, C58 5, C60 10, C61 25, C66 0.375, C71 0.5, C74 0.375, C42 125, mixtures at same rates
Protocol: as §1, §2, §3, §4

[1] = test system: Brassica napus (volunteer weed); assay: Greenhouse trial: herbicidal efficacy, Brassica napus; details: post-emergence 2-4-leaf, 14 days after application, g of ai/ha: A1.1 100, B1.1 5, C12 12.5, C18 50, mixtures at same rates
Protocol: as §1, §2, §3, §4

[2] = Table 8, greenhouse, post-emergence, 14 days after application, g of ai/ha: A1.1 100, B1.1 5, C62 1.25, C4 60, mixtures at same rates
[3] = g of ai/ha: A1.1 100, line r12 5, C28 50, C40 1, C43 100, C13 50, mixtures (100 + 5) + partner rate
[4] = Table 5, greenhouse, post-emergence, 14 days after application, g of ai/ha: A1.1 100, B1.1 5, C7 100, C25 1.25, C52 2.5, C43 100, C57 5, mixtures at same rates
[5] = Table 7, greenhouse, post-emergence, 14 days after application, g of ai/ha: A1.1 100, line r12 5, C28 50, C40 1, C43 100, C13 50, mixtures (100 + 5) + partner rate
[6] = Table 4, greenhouse, post-emergence, 14 days after application, g of ai/ha: A1.1 100, B1.1 5, C5 1.25, C24 12.5, C9 7.5, C32 62.5, C37 5, C58 5, C60 10, C61 25, C66 0.375, C71 0.5, C74 0.375, C42 125, mixtures at same rates
[7] = Table 6, greenhouse, post-emergence, 14 days after application, g of ai/ha: A1.1 100, B1.1 5, C12 12.5, C18 50, mixtures at same rates

Q: For `CCOC(=O)C1=NN(c2ccc(Cl)cc2Cl)C(C)(C(=O)OCC)C1` (stereo not drawn) [(C4) mefenpyr-di-et, mefenpyr(-diethyl)], which “Herbicidal efficacy (%) Lolium multiflorum” value (Lolium multiflorum) is on record?
A: 0%

Q: And the “Damage to crop plants (%) wheat (GA-tolerant)” value (shortened to “Damage to crop plants (%) wheat”) (wheat (GA-tolerant); [2])?
A: 0%

Q: `Cc1cc(Cl)ccc1OCC(=O)O` [(C43) MCPA, MCPA] was tested. Which “Herbicidal efficacy (%) Setaria viridis” value (Setaria viridis; [3]) did it give?
A: 0%

Q: What about the “Damage to crop plants (%) wheat” value (wheat (GA-tolerant); [4]) of the same compound?
A: 0%

Q: And the “Damage to crop plants (%) wheat” value (wheat (GA-tolerant); [5])?
A: 0%

Q: What about the “Herbicidal efficacy (%) Viola arvensis” value (Viola arvensis) of the same compound?
A: 10%

Q: With `COC(=O)c1ccc(I)cc1S(=O)(=O)[N-]C(=O)Nc1nc(C)nc(OC)n1.[Na+]` [(C40) iodosulfuron-me-Na, iodosulfuron-methyl-sodium] as the compound, how does the “Herbicidal efficacy (%) Setaria viridis” value (Setaria viridis; [3]) read?
A: 10%

Q: And the “Damage to crop plants (%) wheat” value (wheat (GA-tolerant); [5])?
A: 0%

Q: Which results are given for `CC(C)c1ccc(NC(=O)N(C)C)cc1` [(C42) isoproturon, isoproturon]?
A: Herbicidal efficacy (%) Matricaria chamomilla (Matricaria chamomilla): 15%; Damage to crop plants (%) wheat (GA-tolerant) (wheat (GA-tolerant); in vivo): 0%

Q: How did the “Herbicidal efficacy (%) Matricaria chamomilla” value (Matricaria chamomilla) turn out when `COC(=O)c1nc(-c2ccc(Cl)c(OC)c2F)cc(N)c1Cl` [(B1.1), methyl 4-amino-3-chloro-6-(4-chloro-2-fluoro-3-methoxyphenyl)pyridine-2-carboxylate] was run?
A: 20%

Q: And the “Herbicidal efficacy (%) Brassica napus” value [1]?
A: 60%

Q: And the “Herbicidal efficacy (%) Lolium multiflorum” value (Lolium multiflorum)?
A: 0%

Q: What about the “Damage to crop plants (%) wheat” value (wheat (GA-tolerant); in vivo) of the same compound?
A: 0%

Q: What about the “Herbicidal efficacy (%) Viola arvensis” value (Viola arvensis) of the same compound?
A: 50%

Q: `COCc1cnc(C2=NC(C)(C(C)C)C(=O)N2)c(C(=O)O)c1` (stereo not drawn) [(C37) imazamox, imazamox] was tested. Which “Herbicidal efficacy (%) Matricaria chamomilla” value (Matricaria chamomilla) did it give?
A: 0%

Q: What about the “Damage to crop plants (%) wheat” value (wheat (GA-tolerant); [6]) of the same compound?
A: 15%

Q: What does the source list for `O=C(Nc1ccc(F)cc1F)c1cccnc1Oc1cccc(C(F)(F)F)c1` [(C18) diflufenican, diflufenican]?
A: Herbicidal efficacy (%) Brassica napus [1]: 30%; Damage to crop plants (%) wheat (GA-tolerant) (wheat (GA-tolerant); [7]): 10%

Q: Which results are given for `N#Cc1cc(Br)c(O)c(Br)c1` [(C7) bromoxynil, bromoxynil]?
A: Damage to crop plants (%) wheat (GA-tolerant) (wheat (GA-tolerant); [4]): 0%; Herbicidal efficacy (%) Viola arvensis (Viola arvensis): 20%

Q: With `COc1cc(OC)nc(NC(=O)NS(=O)(=O)N(C)S(C)(=O)=O)n1` [(C5) amidosulfuron, amidosulfuron] as the compound, how does the “Herbicidal efficacy (%) Matricaria chamomilla” value (Matricaria chamomilla) read?
A: 45%

Q: And the “Damage to crop plants (%) wheat” value (wheat (GA-tolerant); in vivo)?
A: 0%

Q: Which “Herbicidal efficacy (%) Matricaria chamomilla” value (Matricaria chamomilla) does the source give for `COc1nc(C)nc(N(C)C(=O)NS(=O)(=O)c2ccccc2C(=O)O)n1` [(C71) tribenuron, tribenuron] here?
A: 0%

Q: What about the “Damage to crop plants (%) wheat” value (wheat (GA-tolerant); [6]) of the same compound?
A: 0%

Q: Which “Damage to crop plants (%) wheat” value (wheat (GA-tolerant); [6]) does the source give for `COc1nc(C)nc(=NC(=O)NS(=O)(=O)c2ccccc2C(=O)O)[nH]1` [(C74) metsulfuron, metsulfuron] here?
A: 0%

Q: Which “Herbicidal efficacy (%) Matricaria chamomilla” value (Matricaria chamomilla) does the source give for `CCOC(=O)C(Cl)Cc1cc(-n2nc(C)n(C(F)F)c2=O)c(F)cc1Cl` (stereo not drawn) [(C9) carfentrazone, carfentrazone-ethyl] here?
A: 0%

Q: And the “Damage to crop plants (%) wheat” value (wheat (GA-tolerant); [6])?
A: 10%

Q: `COC(=O)c1ccc(CNS(C)(=O)=O)cc1S(=O)(=O)NC(=O)Nc1nc(OC)cc(OC)n1` [(C52) mesosulfuron-me, mesosulfuron-methyl] was tested. Which “Damage to crop plants (%) wheat” value (wheat (GA-tolerant); in vivo) did it give?
A: 0%

Q: What about the “Herbicidal efficacy (%) Viola arvensis” value (Viola arvensis) of the same compound?
A: 0%

Q: With `CCOC(=O)[C@@H](C)Oc1ccc(Oc2nc3ccc(Cl)cc3o2)cc1` [(C24) fenoxaprop-p-et., fenoxaprop-P-ethyl] as the compound, how does the “Herbicidal efficacy (%) Matricaria chamomilla” value (Matricaria chamomilla) read?
A: 0%

Q: And the “Damage to crop plants (%) wheat” value (wheat (GA-tolerant); [6])?
A: 0%

Q: What does the source list for `COC(=O)c1csc(C)c1S(=O)(=O)NC(=O)n1nc(OC)n(C)c1=O` [(C66) thiencarbazone-me, thiencarbazone-methyl]?
A: Herbicidal efficacy (%) Matricaria chamomilla (Matricaria chamomilla): 10%; Damage to crop plants (%) wheat (GA-tolerant) (wheat (GA-tolerant); in vivo): 5%

Q: With `O=C(O)COc1ccc(Cl)cc1Cl` [(C13) 2,4-D, 2,4-D] as the compound, how does the “Herbicidal efficacy (%) Setaria viridis” value (Setaria viridis; [3]) read?
A: 0%

Q: And the “Damage to crop plants (%) wheat” value (wheat (GA-tolerant); [5])?
A: 0%

Q: Which results are given for `COc1cc(OC)n2nc(NS(=O)(=O)c3c(C(F)(F)F)ccnc3OC)nc2n1` [(C62) pyroxulam, pyroxsulam]?
A: Herbicidal efficacy (%) Lolium multiflorum (Lolium multiflorum): 40%; Damage to crop plants (%) wheat (GA-tolerant) (wheat (GA-tolerant); in vivo): 10%

Q: Which results are given for `COc1ncc(F)c2nc(S(=O)(=O)Nc3c(F)cccc3F)nn12` [(C25) florasulam, florasulam]?
A: Damage to crop plants (%) wheat (GA-tolerant) (wheat (GA-tolerant); [4]): 0%; Herbicidal efficacy (%) Viola arvensis (Viola arvensis): 20%

Q: Which “Herbicidal efficacy (%) Matricaria chamomilla” value (Matricaria chamomilla) does the source give for `CNC1=C(c2cccc(C(F)(F)F)c2)C(=O)C(c2ccccc2)O1` (stereo not drawn) [(C32) flurtamone, flurtamone] here?
A: 25%

Q: And the “Damage to crop plants (%) wheat” value (wheat (GA-tolerant); [6])?
A: 15%

Q: For `COc1cnc(OC)n2nc(NS(=O)(=O)c3c(OCC(F)F)cccc3C(F)(F)F)nc12` [(C57) penoxulam, penoxsulam], which “Damage to crop plants (%) wheat” value (wheat (GA-tolerant); in vivo) is on record?
A: 0%

Q: What about the “Herbicidal efficacy (%) Viola arvensis” value (Viola arvensis) of the same compound?
A: 5%

Q: `CP(=O)(O)CCC(N)C(=O)O` (stereo not drawn) [(A1.1) GA, glufosinate-ammonium] was tested. Which “Herbicidal efficacy (%) Matricaria chamomilla” value (Matricaria chamomilla) did it give?
A: 50%

Q: What about the “Herbicidal efficacy (%) Brassica napus” value [1] of the same compound?
A: 15%

Q: And the “Herbicidal efficacy (%) Setaria viridis” value (Setaria viridis; g of ai/ha: A1.1 100, C28 50, C40 1, C43 100, C13 50, mixtures (100 + 5) + partner rate)?
A: 90%

Q: And the “Herbicidal efficacy (%) Lolium multiflorum” value (Lolium multiflorum)?
A: 15%

Q: And the “Damage to crop plants (%) wheat” value (wheat (GA-tolerant); [6])?
A: 10%

Q: And the “Damage to crop plants (%) wheat” value (wheat (GA-tolerant); [4])?
A: 10%

Q: And the “Damage to crop plants (%) wheat” value (wheat (GA-tolerant); [7])?
A: 10%

Q: And the “Damage to crop plants (%) wheat” value (wheat (GA-tolerant); [5])?
A: 10%

Q: And the “Damage to crop plants (%) wheat” value (wheat (GA-tolerant); [2])?
A: 10%

Q: And the “Herbicidal efficacy (%) Viola arvensis” value (Viola arvensis)?
A: 50%

Q: How did the “Herbicidal efficacy (%) Matricaria chamomilla” value (Matricaria chamomilla) turn out when `CCc1cc(C)cc(CC)c1-c1c(OC(=O)C(C)(C)C)n2n(c1=O)CCOCC2` [(C58) pinoxaden, pinoxaden] was run?
A: 0%

Q: What about the “Damage to crop plants (%) wheat” value (wheat (GA-tolerant); [6]) of the same compound?
A: 0%

Q: What does the source list for `CCCOc1nn(C(=O)[N-]S(=O)(=O)c2ccccc2C(=O)OC)c(=O)n1C.[Na+]` [(C60) propoxycarbazone-Na, propoxycarbazone-sodium]?
A: Herbicidal efficacy (%) Matricaria chamomilla (Matricaria chamomilla): 10%; Damage to crop plants (%) wheat (GA-tolerant) (wheat (GA-tolerant); [6]): 10%

Q: `C#CCOC(=O)[C@@H](C)Oc1ccc(Oc2ncc(Cl)cc2F)cc1` [(C12) clodinafop, clodinafop-propargyl] was tested. Which “Herbicidal efficacy (%) Brassica napus” value [1] did it give?
A: 0%

Q: And the “Damage to crop plants (%) wheat” value (wheat (GA-tolerant); in vivo)?
A: 0%

Q: Which results are given for `Cc1nn(C)c(O)c1C(=O)c1ccc(C(F)(F)F)cc1S(C)(=O)=O` [(C61) pyrasulfutole, pyrasulfutole]?
A: Herbicidal efficacy (%) Matricaria chamomilla (Matricaria chamomilla): 50%; Damage to crop plants (%) wheat (GA-tolerant) (wheat (GA-tolerant); in vivo): 0%

Q: `CC(C)N(C(=O)COc1nnc(C(F)(F)F)s1)c1ccc(F)cc1` [(C28) flufenacet, flufenacet (thiafluamide)] was tested. Which “Herbicidal efficacy (%) Setaria viridis” value (Setaria viridis; [3]) did it give?
A: 20%

From patent US9253985B2, “Herbicidal composition for tolerant or resistant cereal crops” (priority 2010, dated 2016)
